According to paper PMC3670040, “Structure of Lipid Kinase p110β/p85β Elucidates an Unusual SH2-Domain-Mediated Inhibitory Mechanism” (Molecular Cell, 2011):
Square brackets hold non-standard residues; d marks the D form. Ends that are not written are not given here. pY = N[C@@H](Cc1ccc(OP(=O)(O)O)cc1)C(=O)O

Tested on: p110β
Assay: Transcreener ADP formation (fluorescence polarization), diC8-PIP2/POPS liposomes, mouse p110β complexes
Type: biochemical
Conditions: ADP formation, 10 μM, Figure 1B
Protocol: Figure 1 Inhibition of p110β by p85-Type Regulatory Subunits and Activation of the Complexes by RTK Phosphopeptide (A) Domain organization of p110β and the regulatory subunits p85α, p85β, and p55γ. The color scheme for the domains is used for all figures, unless otherwise stated. […] The inhibition is released upon addition of the 10 μM PDGFR pY2. […] The y axis is expressed as a change in fluorescence polarization (ΔmP), which is obtained by subtracting the observed polarization for the construct at a given enzyme concentration from the maximum fluorescence polarization for that construct. The plateau in these assays arises due to the competitive nature of the ADP detection system, based on displacement of ADP-Alexa 633 tracer from the ADP^2-antibody by ADP generated during the PI3K assay (see Supplemental Experimental Procedures). All measurements were done in triplicates, and the error bars indicate the standard error of the mean (SEM). […]
Figure 3 Mutation Y677A in p85β-cSH2 Releases Inhibitory Effect on p110β (A) Kinase activity (ADP formation) of p110β in a complex with p85β-icSH2-Y677A (Y677A-ic) compared to the wild-type complex (ic) in the absence and presence of 10 μM PDGFR pY2 (ADP formation on the y axis expressed as in Figure 1B). […]
The lipid kinase activity was determined using the Transcreener ADP2 FP Assay (BellBrook Labs, Madison, WI) according to manufacturer‟s specifications. This non-radioactive assay measures activity by quantitating the amount of ADP formed. The ADP formed by PI3K competes with fluorescent ADP tracer for binding to an anti-ADP antibody, thereby decreasing fluorescence polarization. Because of the competitive nature of this assay, the change in fluorescence polarization signal is not a linear function of enzyme activity, and a convenient measure of enzyme activity is the EC50, or the concentration of enzyme necessary to give half-maximal inhibition of labeled ADP binding to the antibody, for a given concentration of substrate and a fixed time of reaction at initial rate. […]

effect on kinase activity of complexes containing SH2 domains (nicSH2, niSH2, or icSH2 complexes): stimulates kinase activity
Substance: ESDGG[pY]MDMSKDESID[pY]VPMLDMKGDIKYADIE [pY2, bis-phosphopeptide (PDGFR 735–767, with pY740 and pY751)]
effect on activity of p110β/p85β-iSH2 or ΔABD-p110β: did not affect the activity
